Results from ChEMBL document CHEMBL4402608 (J Med Chem, 2020).

Columns and labels:
[1] = biological target: beta3 adrenergic receptor (Homo sapiens, UniProt P13945); experiment: Displacement of [3H]-CGP12177 from recombinant human beta3 adrenergic receptor expressed in HEK Flp-In cell membranes at 10 uM measured after 90 mins by microbeta scintillation counting method relative to control; conditions: probe [3H]-CGP12177
[2] = biological target: T1, Alpha-1A adrenergic receptor (Homo sapiens, UniProt P35348); experiment: Displacement of [3H]-prazosin from recombinant human alpha1A adrenergic receptor at 10 uM measured after 90 mins by microbeta scintillation counting method relative to control; conditions: probe [3H]-prazosin
T1 sequence (P35348 whole entry): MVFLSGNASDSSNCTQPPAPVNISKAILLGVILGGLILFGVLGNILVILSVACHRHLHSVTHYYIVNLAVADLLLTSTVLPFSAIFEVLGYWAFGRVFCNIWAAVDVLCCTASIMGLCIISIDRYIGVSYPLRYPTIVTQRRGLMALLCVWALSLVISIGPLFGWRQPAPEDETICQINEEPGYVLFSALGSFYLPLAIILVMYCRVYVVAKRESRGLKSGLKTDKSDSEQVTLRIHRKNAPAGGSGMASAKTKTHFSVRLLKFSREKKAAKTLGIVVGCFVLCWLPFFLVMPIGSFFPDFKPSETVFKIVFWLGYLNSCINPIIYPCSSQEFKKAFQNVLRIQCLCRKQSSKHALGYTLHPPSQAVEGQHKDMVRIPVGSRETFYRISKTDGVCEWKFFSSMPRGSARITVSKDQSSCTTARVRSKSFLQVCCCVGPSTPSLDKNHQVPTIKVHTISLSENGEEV

Histamine H2 receptor = Histamine H2 receptor (Homo sapiens, UniProt P25021); experiment: Displacement of [125I]-Iodo-aminopotentidine from human histamine H2 receptor expressed in stable HEK cell membranes at 10 uM after 90 mins by microbeta scintillation counting method relative to control; conditions: probe [125I]-Iodo-aminopotentidine
muscarinic M5 receptor = muscarinic M5 receptor (Homo sapiens, UniProt P08912); experiment: Displacement of [3H]-QNB/[3H]-NMS from human muscarinic M5 receptor expressed in stable CHO cell membranes at 10 uM after 90 mins by microbeta scintillation counting method relative to control; conditions: probe [3H]-QNB/[3H]-NMS
muscarinic M3 receptor = muscarinic M3 receptor (Homo sapiens, UniProt P20309); experiment: Displacement of [3H]-QNB/[3H]-NMS from human muscarinic M3 receptor expressed in stable CHO cell membranes at 10 uM after 90 mins by microbeta scintillation counting method relative to control; conditions: probe [3H]-QNB/[3H]-NMS
Mu-type opioid receptor = Mu-type opioid receptor (Homo sapiens, UniProt P35372); experiment: Displacement of [3H]-DAMGO from recombinant human MOR stably expressed in HEK cell membranes measured after 90 mins by microbeta scintillation counting method
[3] = biological target: T2, Alpha-1D adrenergic receptor (Homo sapiens, UniProt P25100); experiment: Displacement of [3H]-prazosin from recombinant human alpha1D adrenergic receptor measured after 90 mins by microbeta scintillation counting method
T2 sequence (P25100 whole entry): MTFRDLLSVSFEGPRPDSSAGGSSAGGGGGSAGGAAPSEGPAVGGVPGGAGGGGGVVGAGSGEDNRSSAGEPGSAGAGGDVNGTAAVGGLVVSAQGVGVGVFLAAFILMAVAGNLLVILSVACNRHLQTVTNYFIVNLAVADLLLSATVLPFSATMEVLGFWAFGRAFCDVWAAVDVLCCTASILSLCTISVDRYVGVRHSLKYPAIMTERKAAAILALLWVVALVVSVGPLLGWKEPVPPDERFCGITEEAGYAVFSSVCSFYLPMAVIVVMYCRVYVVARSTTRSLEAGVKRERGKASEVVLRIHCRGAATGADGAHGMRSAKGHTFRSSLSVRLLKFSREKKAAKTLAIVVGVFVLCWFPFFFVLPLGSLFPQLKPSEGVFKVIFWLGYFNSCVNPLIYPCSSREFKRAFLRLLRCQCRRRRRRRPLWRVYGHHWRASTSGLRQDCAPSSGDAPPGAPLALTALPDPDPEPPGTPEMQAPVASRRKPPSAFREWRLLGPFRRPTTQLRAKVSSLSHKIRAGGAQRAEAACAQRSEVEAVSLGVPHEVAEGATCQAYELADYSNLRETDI

[4] = biological target: Alpha-2A adrenergic receptor (Homo sapiens, UniProt P08913); experiment: Displacement of [3H]-rauwolscine from recombinant human alpha2A adrenergic receptor stably expressed in MDCK cell membranes at 10 uM measured after 90 mins by microbeta scintillation counting method relative to control; conditions: probe [3H]-rauwolscine
[5] = biological target: T3, Alpha-1B adrenergic receptor (Homo sapiens, UniProt P35368); experiment: Displacement of [3H]-prazosin from recombinant human alpha1B adrenergic receptor transiently expressed in HEKT cell membranes measured after 90 mins by microbeta scintillation counting method
T3 sequence (P35368 whole entry): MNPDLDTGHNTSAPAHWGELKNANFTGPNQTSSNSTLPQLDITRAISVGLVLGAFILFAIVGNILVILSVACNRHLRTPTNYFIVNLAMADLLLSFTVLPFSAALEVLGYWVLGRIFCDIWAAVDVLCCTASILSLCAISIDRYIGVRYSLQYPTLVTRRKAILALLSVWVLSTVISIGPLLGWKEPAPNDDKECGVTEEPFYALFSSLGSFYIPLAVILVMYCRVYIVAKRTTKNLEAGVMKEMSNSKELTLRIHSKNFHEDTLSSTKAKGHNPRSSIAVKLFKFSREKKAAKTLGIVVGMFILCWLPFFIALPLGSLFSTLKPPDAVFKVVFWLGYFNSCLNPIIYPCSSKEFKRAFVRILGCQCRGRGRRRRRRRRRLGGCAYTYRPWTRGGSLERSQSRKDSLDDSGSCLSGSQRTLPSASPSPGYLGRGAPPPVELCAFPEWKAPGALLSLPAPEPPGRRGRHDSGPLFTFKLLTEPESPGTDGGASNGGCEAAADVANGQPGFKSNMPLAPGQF

[6] = biological target: Muscarinic acetylcholine receptor M4 (Homo sapiens, UniProt P08173); experiment: Displacement of [3H]-QNB/[3H]-NMS from human muscarinic M4 receptor expressed in stable CHO cell membranes after 90 mins by microbeta scintillation counting method
[7] = biological target: Sodium-dependent noradrenaline transporter (Homo sapiens, UniProt P23975); experiment: Displacement of [3H]-Nisoxetine from human NET receptor expressed in stable HEK cell membranes after 90 mins by microbeta scintillation counting method
[8] = biological target: 5-hydroxytryptamine receptor 7 (Homo sapiens, UniProt P34969); experiment: Displacement of [3H]-LSD from recombinant human 5HT7A receptor stably expressed in HEK cell membranes measured after 90 mins by microbeta scintillation counting method
[9] = biological target: Muscarinic acetylcholine receptor M5 (Homo sapiens, UniProt P08912); experiment: Displacement of [3H]-QNB/[3H]-NMS from human muscarinic M5 receptor expressed in stable CHO cell membranes after 90 mins by microbeta scintillation counting method
dopamine D4 receptor = dopamine D4 receptor (Homo sapiens, UniProt P21917); experiment: Displacement of [3H]-N-methylspiperone from recombinant human D4 receptor stably expressed in HEK cell membranes at 10 uM measured after 90 mins by microbeta scintillation counting method relative to control; conditions: probe [3H]-N-methylspiperone

CCCN(CC[C@]1(O)C[C@H](NC(=O)c2ccc3ccccc3c2)C1)[C@H]1CCc2nc(N)sc2C1
inhibition at […], 10 µM [1]: < 50% | inhibition at […], 10 µM [2]: < 50% | inhibition at […], 10 µM (Histamine H2 receptor): > 50% | inhibition at […], 10 µM (muscarinic M5 receptor): > 50% | inhibition at […], 10 µM (muscarinic M3 receptor): < 50% | Ki (Mu-type opioid receptor; read-out: Ki): 745 nM | Ki ([3]; read-out: Ki): 1180 nM | inhibition at […], 10 µM [4]: < 50% | Ki ([5]; read-out: Ki): 666 nM | Ki ([6]; read-out: Ki): 2280 nM | Ki ([7]; read-out: Ki): 436 nM | Ki [8]: 770 nM | Ki ([9]; read-out: Ki): 2300 nM | inhibition at […], 10 µM (dopamine D4 receptor): > 50%

CCCN[C@H]1CCc2nc(N)sc2C1 [PRAMIPEXOLE]
inhibition at […], 10 µM [1]: > 50% | inhibition at […], 10 µM [2]: > 50% | inhibition at […], 10 µM (Histamine H2 receptor): > 50% | inhibition at […], 10 µM (muscarinic M5 receptor): < 50% | inhibition at […], 10 µM (muscarinic M3 receptor): > 50% | Ki (Mu-type opioid receptor): Not Active | Ki [3]: Not Active | inhibition at […], 10 µM [4]: > 50% | Ki [5]: Not Active | Ki ([6]; cho): Not Active | Ki [7]: Not Active | Ki [8]: 1190 nM | Ki ([9]; cho): Not Active | inhibition at […], 10 µM (dopamine D4 receptor): > 50%
